In PubChem BioAssay (NCI):
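Assay format: 96-well plates, 48-hour exposure. Here, GI50 denotes the concentration required for 50% inhibition of growth. TGI marks complete inhibition of growth.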

Assays:
Test in all cases: NCI-60 cell line screen, 48 h
A549 NSCLC = system: A549 NSCLC
CCRF-CEM leukemia = system: CCRF-CEM leukemia
HCC-2998 colon = system: HCC-2998 colon
HCT-116 colon = system: HCT-116 colon
HCT-15 colon = system: HCT-15 colon
HL-60(TB) leukemia = system: HL-60(TB) leukemia
OVCAR-4 ovarian = system: OVCAR-4 ovarian
OVCAR-8 ovarian = system: OVCAR-8 ovarian
SF-295 CNS = system: SF-295 CNS
SK-OV-3 ovarian = system: SK-OV-3 ovarian

Compound | GI50 (A549 NSCLC) | TGI (A549 NSCLC) | GI50 (CCRF-CEM leukemia) | GI50 (HCC-2998 colon) | TGI (HCC-2998 colon) | GI50 (HCT-116 colon) | TGI (HCT-116 colon) | GI50 (HCT-15 colon) | TGI (HCT-15 colon) | GI50 (HL-60(TB) leukemia) | TGI (HL-60(TB) leukemia) | GI50 (OVCAR-4 ovarian) | TGI (OVCAR-4 ovarian) | GI50 (OVCAR-8 ovarian) | TGI (OVCAR-8 ovarian) | GI50 (SF-295 CNS) | TGI (SF-295 CNS) | GI50 (SK-OV-3 ovarian) | TGI (SK-OV-3 ovarian) | TGI (CCRF-CEM leukemia)
CC(C)[C@]12O[C@H]1[C@@H]1O[C@]13[C@]1(O[C@H]1C[C@H]1c4c(C(=O)c5ccccc5)oc(OC(=O)c5ccccc5)c4CC[C@@]13C)[C@@H]2O | 0.059 µM | > 62.4 µM | 0.0429 µM | 0.0378 µM | 0.355 µM | 0.0142 µM | > 100 µM | 0.0291 µM | > 100 µM | 0.023 µM | > 100 µM | 0.0313 µM | > 88.4 µM | 0.0494 µM | > 50.2 µM | 0.0653 µM | 2.75 µM | 0.0351 µM | > 100 µM | –
CC(CN(CP(=O)([O-])[O-])CP(=O)([O-])[O-])N(CP(=O)([O-])[O-])CP(=O)([O-])[O-].N[C@@H]1CCCC[C@@H]1N.[Pt+2] (centres undefined) | > 100 µM | > 100 µM | > 100 µM | > 100 µM | > 100 µM | > 100 µM | > 100 µM | > 100 µM | > 100 µM | > 100 µM | > 100 µM | > 100 µM | > 100 µM | > 100 µM | > 100 µM | > 100 µM | > 100 µM | > 100 µM | > 100 µM | > 100 µM
C[n+]1c2ccccc2c(NC2CCNCC2)c2[nH]c3ccccc3c21 | 0.0812 µM | 2.73 µM | 0.48 µM | 0.331 µM | 1.63 µM | 0.812 µM | 4.53 µM | 10.3 µM | > 46 µM | 1.8 µM | > 22.6 µM | 0.253 µM | 2.57 µM | 1.42 µM | 12.8 µM | 0.64 µM | 8.32 µM | 0.302 µM | 3 µM | 3.13 µM
CC(=O)O[C@H]1CC[C@@]2(C)C(=CC[C@@H]3C2CC[C@]2(C)Nc4oncc4CC32)C1 (some centres undefined) | – | 83.6 µM | – | – | > 100 µM | – | 30.4 µM | – | > 100 µM | – | 31.9 µM | – | 34.4 µM | – | > 100 µM | – | > 100 µM | – | > 100 µM | 23 µM
